# How the values were obtained:
# protease = assay: Protease activity retention in detergent use solution (4000 ppm, 5 GPG water; peptidyl substrate, glycine buffer pH 9.0); type: biochemical; details: base formula, use solution at 120° F.
# Method in brief: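 Detergent use solutions at 4000 ppm in 5 GPG water were held at 120° F with stirring and sampled up to 4 h, with aliquots flash-frozen. Activity was read on a peptidyl substrate in glycine buffer pH 9.0 by absorbance against a calibration curve. Retention is % activity relative to the t=0 sample.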
# amylase = assay: Amylase activity retention in detergent use solution (4000 ppm, 5 GPG water; ethylidene substrate EPS, HEPES buffer pH 8.0); type: biochemical; details: base formula
# Method in brief: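 Detergent use solution at 4000 ppm in 5 GPG water held at 120° F.; aliquots taken up to 4 h, flash-frozen, then assayed with p-nitrophenyl valerate in TRIS pH 8.0 (lipase) or EPS substrate in HEPES pH 8.0 (amylase). Retention given as % activity relative to t=0.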
substance,measurement,setting,value
Polyamino Polyether Methylene Phosphonic Acid [PAPEMP],Relative Protease Enzyme Activity,"protease; phosphonate 0.3 wt-%, lower half of Table 4A, time 5",107.31%
same,Relative Protease Enzyme Activity,"protease; phosphonate 0.3 wt-%, lower half of Table 4A, time 20",105.51%
same,Relative Protease Enzyme Activity,"protease; phosphonate 0.3 wt-%, lower half of Table 4A, time 90",96.21%
same,Relative Protease Enzyme Activity,"protease; phosphonate 0.3 wt-%, lower half of Table 4A, time 120",99.48%
same,Relative Protease Enzyme Activity,"protease; phosphonate 0.3 wt-%, lower half of Table 4A, time 150, unit not given",93.74%
same,Relative Protease Enzyme Activity,"protease; phosphonate 0.3 wt-%, lower half of Table 4A, time 210",92.79%
same,Relative Protease Enzyme Activity,"protease; phosphonate 0.3 wt-%, lower half of Table 4A, time '0'",100.00%
same,Relative Protease Enzyme Activity,"protease; phosphonate 0.3 wt-%, lower half of Table 4A, time '40'",100.17%
same,Relative Protease Enzyme Activity,"protease; phosphonate 0.3 wt-%, lower half of Table 4A, time 'Blank'",100.00%
same,Relative Protease Enzyme Activity,"protease; phosphonate 0.3 wt-%, lower half of Table 4A, time row printed '10'",109.98%
same,Relative Protease Enzyme Activity,"protease; phosphonate 0.3 wt-%, lower half of Table 4A, time row printed '60'",89.50%
same,Relative Protease Enzyme Activity,"protease; phosphonate 0.3 wt-%, lower half of Table 4A, time row printed '180'",86.60%
same,Relative Protease Enzyme Activity,"protease; phosphonate 0.6 wt-%, time 0 min",100.00%
same,Relative Protease Enzyme Activity,"protease; phosphonate 0.6 wt-%, time 5 min",98.49%
same,Relative Protease Enzyme Activity,"protease; phosphonate 0.6 wt-%, time 10 min",96.69%
same,Relative Protease Enzyme Activity,"protease; phosphonate 0.6 wt-%, time 20 min",93.71%
same,Relative Protease Enzyme Activity,"protease; phosphonate 0.6 wt-%, time 40 min",92.60%
same,Relative Protease Enzyme Activity,"protease; phosphonate 0.6 wt-%, time 60 min",92.60%
same,Relative Protease Enzyme Activity,"protease; phosphonate 0.6 wt-%, time 90 min",86.28%
same,Relative Protease Enzyme Activity,"protease; phosphonate 0.6 wt-%, time 120 min",88.30%
same,Relative Protease Enzyme Activity,"protease; phosphonate 0.6 wt-%, time 150 min",89.66%
same,Relative Protease Enzyme Activity,"protease; phosphonate 0.6 wt-%, time 180 min",86.90%
same,Relative Protease Enzyme Activity,"protease; phosphonate 0.6 wt-%, time 210 min",87.49%
same,Relative Protease Enzyme Activity,"protease; phosphonate 0.6 wt-%, time 240 min",86.53%
same,Relative Protease Enzyme Activity,"protease; phosphonate at 0.1% elemental phosphorus, time 0 min",100.00%
same,Relative Protease Enzyme Activity,"protease; phosphonate at 0.1% elemental phosphorus, time 5 min",95.74%
same,Relative Protease Enzyme Activity,"protease; phosphonate at 0.1% elemental phosphorus, time 10 min",95.47%
same,Relative Protease Enzyme Activity,"protease; phosphonate at 0.1% elemental phosphorus, time 20 min",92.78%
same,Relative Protease Enzyme Activity,"protease; phosphonate at 0.1% elemental phosphorus, time 40 min",86.55%
same,Relative Protease Enzyme Activity,"protease; phosphonate at 0.1% elemental phosphorus, time 60 min",87.49%
same,Relative Protease Enzyme Activity,"protease; phosphonate at 0.1% elemental phosphorus, time 90 min",86.61%
same,Relative Protease Enzyme Activity,"protease; phosphonate at 0.1% elemental phosphorus, time 120 min",86.34%
same,Relative Protease Enzyme Activity,"protease; phosphonate at 0.1% elemental phosphorus, time 150 min",84.01%
same,Relative Protease Enzyme Activity,"protease; phosphonate at 0.1% elemental phosphorus, time 180 min",71.92%
same,Relative Protease Enzyme Activity,"protease; phosphonate at 0.1% elemental phosphorus, time 210 min",80.74%
same,Relative Protease Enzyme Activity,"protease; phosphonate at 0.1% elemental phosphorus, time 240 min",79.08%
same,Relative Amylase Enzyme Activity,"amylase; phosphonate 0.3 wt-%, use solution at 120° F., time 0 min",45.92%
same,Relative Amylase Enzyme Activity,"amylase; phosphonate 0.3 wt-%, use solution at 120° F., time 5 min",100.00%
same,Relative Amylase Enzyme Activity,"amylase; phosphonate 0.3 wt-%, use solution at 120° F., time 10 min",101.33%
same,Relative Amylase Enzyme Activity,"amylase; phosphonate 0.3 wt-%, use solution at 120° F., time 20 min",101.28%
same,Relative Amylase Enzyme Activity,"amylase; phosphonate 0.3 wt-%, use solution at 120° F., time 40 min",89.91%
same,Relative Amylase Enzyme Activity,"amylase; phosphonate 0.3 wt-%, use solution at 120° F., time 60 min",93.07%
same,Relative Amylase Enzyme Activity,"amylase; phosphonate 0.3 wt-%, use solution at 120° F., time 90 min",89.58%
same,Relative Amylase Enzyme Activity,"amylase; phosphonate 0.3 wt-%, use solution at 120° F., time 120 min",89.74%
same,Relative Amylase Enzyme Activity,"amylase; phosphonate 0.3 wt-%, use solution at 120° F., time 150 min",92.85%
same,Relative Amylase Enzyme Activity,"amylase; phosphonate 0.3 wt-%, use solution at 120° F., time 180 min",87.45%
same,Relative Amylase Enzyme Activity,"amylase; phosphonate 0.3 wt-%, use solution at 120° F., time 210 min",93.95%
same,Relative Amylase Enzyme Activity,"amylase; phosphonate 0.3 wt-%, use solution at 120° F., time 240 min",108.16%
same,Relative Amylase Enzyme Activity,"amylase; phosphonate 0.6 wt-%, use solution at 120º F., time 0 min",100.00%
same,Relative Amylase Enzyme Activity,"amylase; phosphonate 0.6 wt-%, use solution at 120º F., time 5 min",91.71%
same,Relative Amylase Enzyme Activity,"amylase; phosphonate 0.6 wt-%, use solution at 120º F., time 10 min",99.05%
same,Relative Amylase Enzyme Activity,"amylase; phosphonate 0.6 wt-%, use solution at 120º F., time 20 min",94.55%
same,Relative Amylase Enzyme Activity,"amylase; phosphonate 0.6 wt-%, use solution at 120º F., time 40 min",97.22%
same,Relative Amylase Enzyme Activity,"amylase; phosphonate 0.6 wt-%, use solution at 120º F., time 60 min",97.94%
same,Relative Amylase Enzyme Activity,"amylase; phosphonate 0.6 wt-%, use solution at 120º F., time 90 min",101.28%
same,Relative Amylase Enzyme Activity,"amylase; phosphonate 0.6 wt-%, use solution at 120º F., time 120 min",99.25%
same,Relative Amylase Enzyme Activity,"amylase; phosphonate 0.6 wt-%, use solution at 120º F., time 150 min",105.34%
same,Relative Amylase Enzyme Activity,"amylase; phosphonate 0.6 wt-%, use solution at 120º F., time 180 min",98.44%
same,Relative Amylase Enzyme Activity,"amylase; phosphonate 0.6 wt-%, use solution at 120º F., time 210 min",101.64%
same,Relative Amylase Enzyme Activity,"amylase; phosphonate 0.6 wt-%, use solution at 120º F., time 240 min",96.02%
same,Relative Amylase Enzyme Activity,"amylase; phosphonate at 0.1% elemental phosphorus level, use solution at 120º F., time 0 min",100.00%
same,Relative Amylase Enzyme Activity,"amylase; phosphonate at 0.1% elemental phosphorus level, use solution at 120º F., time 5 min",85.10%
same,Relative Amylase Enzyme Activity,"amylase; phosphonate at 0.1% elemental phosphorus level, use solution at 120º F., time 10 min",95.50%
same,Relative Amylase Enzyme Activity,"amylase; phosphonate at 0.1% elemental phosphorus level, use solution at 120º F., time 20 min",96.02%
same,Relative Amylase Enzyme Activity,"amylase; phosphonate at 0.1% elemental phosphorus level, use solution at 120º F., time 40 min",91.46%
same,Relative Amylase Enzyme Activity,"amylase; phosphonate at 0.1% elemental phosphorus level, use solution at 120º F., time 60 min",97.42%
same,Relative Amylase Enzyme Activity,"amylase; phosphonate at 0.1% elemental phosphorus level, use solution at 120º F., time 90 min",89.60%
same,Relative Amylase Enzyme Activity,"amylase; phosphonate at 0.1% elemental phosphorus level, use solution at 120º F., time 120 min",99.26%
same,Relative Amylase Enzyme Activity,"amylase; phosphonate at 0.1% elemental phosphorus level, use solution at 120º F., time 150 min",101.88%
same,Relative Amylase Enzyme Activity,"amylase; phosphonate at 0.1% elemental phosphorus level, use solution at 120º F., time 180 min",91.85%
same,Relative Amylase Enzyme Activity,"amylase; phosphonate at 0.1% elemental phosphorus level, use solution at 120º F., time 210 min",99.00%
same,Relative Amylase Enzyme Activity,"amylase; phosphonate at 0.1% elemental phosphorus level, use solution at 120º F., time 240 min",96.59%
